For seven compounds, IC50 results are on record in EP0411751A1, “Renin inhibitory peptides” (Beecham Group p.l.c., priority 1989, dated 1991).

In this assay the target is T1, human renin (Homo sapiens, UniProt P00797).
T1 construct: from tissue; host or cells: human plasma from blood of healthy volunteers
T1 sequence (P00797 67-406): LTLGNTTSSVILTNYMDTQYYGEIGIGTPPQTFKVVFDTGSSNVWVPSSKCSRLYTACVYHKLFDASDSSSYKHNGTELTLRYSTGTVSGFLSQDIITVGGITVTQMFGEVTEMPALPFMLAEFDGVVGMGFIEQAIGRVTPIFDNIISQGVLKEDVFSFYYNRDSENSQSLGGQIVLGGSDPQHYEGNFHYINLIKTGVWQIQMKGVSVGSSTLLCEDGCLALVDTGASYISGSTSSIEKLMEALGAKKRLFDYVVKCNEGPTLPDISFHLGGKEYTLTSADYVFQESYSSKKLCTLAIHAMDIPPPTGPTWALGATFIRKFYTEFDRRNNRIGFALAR
Nature of the assay: In vitro human renin inhibition (renin activity in human plasma, angiotensin I radioimmunoassay). In kind it is biochemical. The conditions noted are these: angiotensin I difference between halves incubated at 37° and 4° for 2 h, linear regression of at least three concentrations, read-out: IC₅₀. How it is done:
In vitro human renin inhibition
Renin inhibitory activity was estimated as the percentage change in renin activity in human plasma in the presence and absence of compound. The source of plasma was blood taken from healthy volunteers. Renin activity was defined by the difference in angiotensin I levels between two halves of a sample, one incubated at 37^o and the other at 4^o for 2 h. Angiotensin I levels were measured using a ¹²⁵I- angiotensin I radioimmunoassay kit (NEN/DuPont, Stevenage). Results were calculated as the mean of at least two, duplicate determinations and IC₅₀ values were calculated by linear regression analysis of at least three concentrations of compound.
For the compound `CC(C)C[C@H](NC(=O)[C@H](Cc1ccccc1)NC(=O)CCN1C(=O)COc2ccc(C(=O)O)cc21)C(=O)N[C@@H](CC1CCCCC1)[C@@H](O)CC(=O)NCCCn1ccnc1` [Example E15, 6-Carboxy-2,3-dihydro-3-oxo-4H-1,4-benzoxazine-4-propanoyl-Phe-Leu-ACHPA 3-(1-imidazolyl)propylamide], the IC50 came out at 42 nM. For `CC(C)CNC(=O)C[C@H](O)[C@H](CC1CCCCC1)NC(=O)[C@H](CC(C)C)NC(=O)[C@H](Cc1ccccc1)NC(=O)CC1CCOc2ccccc21` (stereo partly drawn) [Example E1, Chromanyl-4-acetyl-Phe-Leu-ACHPA isobutylamide .0.5H₂O], the IC50 came out at 47 nM.

Consider `CC(C)C[C@H](NC(=O)[C@H](Cc1ccccc1)NC(=O)CCN1C(=O)CCS(=O)(=O)c2ccccc21)C(=O)N[C@@H](CC1CCCCC1)[C@@H](O)CC(=O)NCCCn1ccnc1` [Example E19, 3,4-Dihydro-1,1,4-trioxo-1,5-benzothiazepine-5(2H)-propanoyl-Phe-Leu-ACHPA 3-(1-imidazolyl)propylamide], for which the IC50 worked out at 22 nM. With `CC(C)CNC(=O)C[C@H](O)[C@H](CC1CCCCC1)NC(=O)[C@H](CC(C)C)NC(=O)[C@H](Cc1ccccc1)NC(=O)CCN1C(=O)CS(=O)(=O)c2ccccc21` [Example E7, 2,3-Dihydro-1,1,3-trioxo-4H-1,4-benzothiazine-4-propanoyl-Phe-Leu-ACHPA isobutylamide .0.5H₂O], the IC50 is 13 nM.

On to `CC(C)C[C@H](NC(=O)[C@H](Cc1ccccc1)NC(=O)CCN1C(=O)CCSc2ccccc21)C(=O)N[C@@H](CC1CCCCC1)[C@@H](O)CC(=O)NCCCn1ccnc1` [Example E18, 3,4-Dihydro-4-oxo-1,5-benzothiazepine-5(2H)-propanoyl-Phe-Leu-ACHPA 3-(1-imidazolyl)propylamide.0.5(CHCl₃)], for which the IC50 is 8 nM. Take `CC(C)C[C@H](NC(=O)[C@H](Cc1ccccc1)NC(=O)CCN1C(=O)COc2ccc(CN)cc21)C(=O)N[C@@H](CC1CCCCC1)[C@@H](O)CC(=O)NCCCn1ccnc1` [Example E11, 6-(Aminomethyl)-2,3-dihydro-3-oxo-4H-1,4-benzoxazine-4-propanoyl-Phe-Leu-ACHPA 3-(1imidazolyl)propylamide .3CF₃CO₂H]: the IC50 turned out to be 25 nM.

Consider `Cc1ccc2c(c1)N(CC(=O)N[C@@H](Cc1ccccc1)C(=O)N[C@@H](CC(C)C)C(=O)N[C@@H](CC1CCCCC1)[C@@H](O)CC(=O)NCC(C)C)C(=O)CO2` [Example E2, 2,3-Dihydro-6-methyl-3-oxo-4H-1,4-benzoxazine-4-acetyl-Phe-Leu-ACHPA isobutylamide .H₂O], for which the IC50 is 220 nM.
